Results taken from patent US20070293518A1, “PROLONGED IMPROVEMENT OF RENAL FUNCTION COMPRISING INFREQUENT ADMINISTRATION OF AN AA1RA” (priority 2006, published 2007).
Several values for one entry are separate records, joined by “and”; a condition that tells them apart may be missing. Identical values can stand only once. Like-named read-outs stand apart in the source and are kept apart here. Marks after values point to notes of the source that are not given here.

Assays:
[1] = test system: subjects hospitalized due to acute CHF requiring intravenous diuretic therapy; assay: Study in subjects hospitalized due to acute CHF requiring intravenous diuretic therapy: serum creatinine, worsening renal function; type: in vivo, human
Method: More than 300 subjects hospitalized due to acute CHF requiring intravenous diuretic therapy to treat fluid overload, and presenting with creatinine clearance values between 20 to 80 mL/min were identified. The subjects were randomized to receive either placebo, or 10 mg, 20 mg or 30 mg intravenous KW-3902 per day. The subjects' BNP levels, NT-Pro-BNP, serum creatinine, weight, and NYHA Class were measured.
On day 1, KW-3902 (or placebo) was co-administered with intravenous furosemide (LASIX™). The specified dose of KW-3902 (or placebo) was infused over a four hour time period. Subjects received therapy for up to three days, as required. Serum creatinine, weight, dyspnea, and worsening heart failure were assessed daily by the investigator on days 1 through 14. Worsening renal function was defined as a ≧0.3 mg/dL increase in serum creatinine.
A subgroup of subjects received a single dose of KW-3902 and LASIX or a single dose of placebo and LASIX.

[2] = test system: patients with CHF and renal impairment; assay: Double-blind placebo-controlled study in CHF patients with acute fluid overload and renal impairment: sustained worsening renal function; type: in vivo, human; details: 2.5, 15, 30 or 60 mg IV days 1 through 3; FIG. 6
Method: Worsening renal function was defined as a ≧0.3 mg/dL increase in serum creatinine.

[3] = test system: subjects with congestive heart failure refractory to standard diuretic therapy; assay: Double-blind placebo-controlled study in CHF patients refractory to standard diuretic therapy: creatinine clearance; type: in vivo, human; details: 30 mg intravenous infusion with current diuretic therapy; 0-24 hours; FIG. 4
Method: A double-blind placebo-controlled study was conducted as follows: 35 subjects with congestive heart failure that were refractory to standard diuretic therapy were identified. […] The patients' diuretic therapy was stopped at least 5 hours before prior to the treatment. Staring at −3 hours, urine was collected for volume and creatinine clearance measurements. […] Blood and urine samples were colleted at 0, 3, 6, 9, 12 and 24 hours following study drug administration.

[4] = test system: heart failure patients with renal impairment who are treated with diuretics; assay: Double-blind cross-over study in stable CHF: GFR, RPF, urine volume; type: in vivo, human; details: for GFR % Difference Between KW-3902 and Placebo / GFR Percent Change from Baseline / RPF % Difference Between KW-3902 and Placebo / RPF Percent Change from Baseline: 30 mg KW-3902 IV plus 80 mg IV furosemide
Method: A double-blind, multi-center, cross-over designed, controlled study was conducted as follows: Approximately 23 outpatient subjects were randomized. […] Subjects received at least two treatments that were at least three days apart, with a median interval between treatments of 6 days. […] Patients that received KW-3902 on the first visit received placebo on the second visit, and vice versa. Infusions of lothalamate ([…]) and para-aminohippurate were administered according to standard protocols to assess glomerular filtration rate (GFR) and renal plasma flow (RPF), respectively. Iothalamate and para-aminohippurate were administered over 180 minutes before treatment with KW-3902/placebo and 8 hours after treatment with KW-3902/placebo. Urine and plasma were collected for GFR and RPF at baseline and 2, 4, and 8 hours. The mean GFR at baseline was 61 mL/min.

[5] = Pharmacokinetic study of KW-3902, single intravenous dose, serum concentrations; type: in vivo; details: human; for clearance: read-out: CL∞ Mean (converted); for half-life: read-out: T1/2 Mean (converted); for Tmax: read-out: Tmax Median; for Vd: read-out: Vss∞ Mean
Method: Individuals received a single intravenous dose of 1 mg, 2.5 mg. 5 mg, 10 mg, 20 mg, 30 mg 40 mg, 50 mg or 60 mg KW-3902 as indicated. The serum concentrations of KW-3902 and its M1-trans metabolite were measured using routine analytical methods. Routine mathematical formulae were used to determine pharmacokinetic values.

[6] = serum, individual subjects of subgroup, single dose of KW-3902 and LASIX
[7] = 1 mg, single intravenous dose 1 mg, Group 1, serum
[8] = 2.5 mg, single intravenous dose 2.5 mg, Group 1 (n = 4)
[9] = 2.5 mg, single intravenous dose 2.5 mg, Group 2 (n = 8)
[10] = 5 mg, single intravenous dose 5 mg, Group 2, serum
[11] = 10 mg, single intravenous dose 10 mg, Group 2, serum
[12] = 20 mg, single intravenous dose 20 mg, Group 3, serum
[13] = 30 mg, single intravenous dose 30 mg, Group 3, serum
[14] = 40 mg, single intravenous dose 40 mg, Group 4, serum
[15] = 50 mg, single intravenous dose 50 mg, Group 4, serum
[16] = 60 mg, single intravenous dose 60 mg, Group 4, serum

## CCCn1c(=O)c2[nH]c(C34CC5CC(CC3C5)C4)nc2n(CCC)c1=O [KW-3902, 8-(3-noradamantyl)-1,3-dipropylxanthine]
[1]; 30 mg per day IV up to three days, Day 14, FIG. 8
  Change in mean serum creatinine levels (in words): overall decrease in serum creatinine levels
[1]; days 2, 3, 4, 5, 6, and 7, FIG. 7
  Increase in the percentage of individuals with worsening renal failure, compared to placebo: lower
[1]; serum, Day 14 vs Day 1, individual subjects of subgroup, single dose of KW-3902 and LASIX
  Δ Creatinine: −0.5 mg/dL and 0 mg/dL (2×) and 0.2 mg/dL and −0.2 mg/dL and −0.1 mg/dL
[1]; [6]
  Day 1 Creatinine: 1.7 mg/dL and 1.4 mg/dL and 1.15 mg/dL and 2.9 mg/dL and 1.6 mg/dL and 3.2 mg/dL and 1.0 mg/dL
  Day 14 Creatinine: 1.2 mg/dL and 1.4 mg/dL and 1.3 mg/dL and 2.7 mg/dL (2×) and 1.0 mg/dL
[1]; single dose subgroup (30 mg KW-3902), Day 14
  Mean change in serum creatinine levels (in words): mean decrease in serum creatinine levels
[2]
  Sustained worsening renal function (≧0.3 mg/dL increase in serum creatinine), in words: improves renal function
[3]
  Change in creatinine clearance from baseline (in words): improvement in renal function over time
[4]; 0-2 hours
  GFR % Difference Between KW-3902 and Placebo: 27.3* %
  GFR Percent Change from Baseline: 22.1* Percent
  RPF % Difference Between KW-3902 and Placebo: 27.7* %
  RPF Percent Change from Baseline: 33.3* Percent
[4]; 0-8 hours
  GFR % Difference Between KW-3902 and Placebo: 23.4* %
  GFR Percent Change from Baseline: 32.1* Percent
  RPF % Difference Between KW-3902 and Placebo: 24.9* %
  RPF Percent Change from Baseline: 47.7** Percent
[4]; 2-4 hours
  GFR % Difference Between KW-3902 and Placebo: 7.6%
  GFR Percent Change from Baseline: 8.5%
  RPF % Difference Between KW-3902 and Placebo: 12.7%
  RPF Percent Change from Baseline: 41.7%
[4]; 4-8 hours
  GFR % Difference Between KW-3902 and Placebo: 30.1* %
  GFR Percent Change from Baseline: 41.3* Percent
  RPF % Difference Between KW-3902 and Placebo: 30.0* %
  RPF Percent Change from Baseline: 55.8* Percent
[4]; FIG. 2
  Effect on GFR (in words): statistically significant increase
[4]; FIG. 3
  Effect on renal plasma flow (in words): statistically significant increase
[4]; KW-3902 plus furosemide
  Urine volume over 8 hours: 2995.1 ± 1138.17 mL
[4]; subgroup that received KW-3902 on the first visit, follow-up baseline (median 6 days), FIG. 5
  Persistence of the increase in GFR noted at 8 hours: persisted at the time of follow-up baseline
[5]; [7]
  AUC(0-inf): 31.5 ng·h/mL
  Cmax: 12.9 ng/mL
  MRT inf: 2.6 h
  clearance: 610 mL/min
  half-life: 2.8 h
  Tmax: 0.5 h
  Vd: 58.9 L
[5]; [8]
  AUC(0-inf): 97.6 ng·h/mL
  Cmax: 35.6 ng/mL
  MRT inf: 8.1 h
  clearance: 443 mL/min
  half-life: 11.4 h
  Tmax: 1.2 h
  Vd: 185 L
[5]; [9]
  AUC(0-inf): 84 ng·h/mL
  Cmax: 35.9 ng/mL
  MRT inf: 4.7 h
  clearance: 518 mL/min
  half-life: 7.3 h
  Tmax: 0.5 h
  Vd: 117 L
[5]; [10]
  AUC(0-inf): 221 ng·h/mL
  Cmax: 90.9 ng/mL
  MRT inf: 5.8 h
  clearance: 435 mL/min
  half-life: 9.6 h
  Tmax: 0.5 h
  Vd: 106 L
[5]; [11]
  AUC(0-inf): 496 ng·h/mL
  Cmax: 186 ng/mL
  MRT inf: 8.7 h
  clearance: 350 mL/min
  half-life: 14.4 h
  Tmax: 0.5 h
  Vd: 161 L
[5]; [12]
  AUC(0-inf): 898 ng·h/mL
  Cmax: 294 ng/mL
  MRT inf: 11.5 h
  clearance: 390 mL/min
  half-life: 18 h
  Tmax: 1.2 h
  Vd: 244 L
[5]; [13]
  AUC(0-inf): 1190 ng·h/mL
  Cmax: 457 ng/mL
  MRT inf: 7.7 h
  clearance: 455 mL/min
  half-life: 14.7 h
  Tmax: 0.6 h
  Vd: 189 L
[5]; [14]
  AUC(0-inf): 1870 ng·h/mL
  Cmax: 452 ng/mL
  MRT inf: 9.4 h
  clearance: 372 mL/min
  half-life: 16.1 h
  Tmax: 2.2 h
  Vd: 178 L
[5]; [15]
  AUC(0-inf): 2120 ng·h/mL
  Cmax: 579 ng/mL
  MRT inf: 7.9 h
  clearance: 427 mL/min
  half-life: 15.5 h
  Tmax: 1.6 h
  Vd: 166 L
[5]; [16]
  AUC(0-inf): 2720 ng·h/mL
  Cmax: 682 ng/mL
  MRT inf: 9.2 h
  clearance: 378 mL/min
  half-life: 16.4 h
  Tmax: 2.2 h
  Vd: 176 L
